Test results taken from PubChem BioAssay (NCI).
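Each compound was tested at five concentrations against cells in 96-well plates for 48 hours. GI50: concentration for 50% inhibition of growth. TGI denotes the concentration required for complete inhibition of growth.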

Legend:
Test in all cases: inhibition of tumour cell growth, NCI panel, 48 h
A549 NSCLC = tested on: A549 NSCLC
HCT-15 colon = tested on: HCT-15 colon
HT29 colon = tested on: HT29 colon
MALME-3M melanoma = tested on: MALME-3M melanoma
MCF7 breast = tested on: MCF7 breast
MDA-MB-435 = tested on: MDA-MB-435
OVCAR-3 ovarian = tested on: OVCAR-3 ovarian
SF-295 CNS = tested on: SF-295 CNS
SK-MEL-5 melanoma = tested on: SK-MEL-5 melanoma
SN12C renal = tested on: SN12C renal

Row | SMILES | GI50 (A549 NSCLC) [µM] | TGI (A549 NSCLC) [µM] | GI50 (HCT-15 colon) [µM] | TGI (HCT-15 colon) [µM] | GI50 (HT29 colon) [µM] | TGI (HT29 colon) [µM] | GI50 (MALME-3M melanoma) [µM] | TGI (MALME-3M melanoma) [µM] | GI50 (MCF7 breast) [µM] | TGI (MCF7 breast) [µM] | GI50 (MDA-MB-435) [µM] | TGI (MDA-MB-435) [µM] | GI50 (OVCAR-3 ovarian) [µM] | TGI (OVCAR-3 ovarian) [µM] | GI50 (SF-295 CNS) [µM] | TGI (SF-295 CNS) [µM] | GI50 (SK-MEL-5 melanoma) [µM] | TGI (SK-MEL-5 melanoma) [µM] | GI50 (SN12C renal) [µM] | TGI (SN12C renal) [µM]
1 | C=C(C)[C@@H]1CC[C@]2(C)[C@H](CC[C@@H]3[C@@H]([C@@](C)(O)CCC=C(C)C)CC[C@]32C)[C@@]1(C)CCC(=O)O | 23.3 | 91.9 | 15.4 | 31 | 24.1 | > 100 | 14.4 | 28.2 | 19.7 | 49.3 | 17.9 | 38.6 | 15.9 | 29.8 | 17.7 | 32.2 | 15.2 | 29 | 17.2 | 40.5
2 | Cc1ccc2occ/c(=N\Nc3ccccc3)c2c1 |  | > 100 |  | > 100 |  | > 100 |  | > 100 |  | > 100 |  | > 100 |  | > 100 |  | > 100 |  | > 100 |  | > 100
3 | C=C1C(O)C2C(=C(C)C13CC3)C(=O)C(C)(C)C2OC (stereo not given) | > 100 | > 100 | > 100 | > 100 | > 100 | > 100 | > 100 | > 100 | 69.4 | > 100 | > 100 | > 100 | > 100 | > 100 | > 100 | > 100 | 50.5 | > 100 | > 100 | > 100
4 | O=C(NNc1cnccn1)c1nc2cc(F)ccc2n2cccc12 | 0.542 | > 100 | 0.183 | > 100 | 0.649 | > 100 | 1.06 | > 100 | 0.336 | > 100 | 0.873 | > 100 | 0.311 | > 100 | 0.531 | > 100 | 1.07 | 3.13 | 0.925 | > 100
5 | COc1cc(OC)c2sc(-c3ccc(-n4cncc4-c4cc(OC)c(OC)c(OC)c4)cc3)nc2c1 | 6.16 | > 100 | 5.48 | > 100 | 4.88 | > 100 | 3.73 | > 100 | 3.88 | > 100 | 3.41 | > 100 | 3.26 | > 100 | 4.42 | > 100 | 2.46 | > 100 | > 100 | > 100
6 | CCOC(=O)C1=C(N)Oc2c(sc3c(C)cccc23)C1c1ccc(F)cc1 (stereo not given) | 0.804 | 17.2 | 0.415 | 10.9 | 0.938 | 12.8 | 0.588 | 20.8 | 0.47 | 11.4 | 0.21 | 0.464 | 0.403 | 13.1 | 0.297 | 2.41 | 1.18 | 8.49 | 1.11 | 14.5
7 | CCOC(=O)c1sc(NC(=O)COc2cccc(/C=C3\CCc4cc(OC)ccc4C3=O)c2)nc1C | 34.7 | > 100 | 2.93 | > 100 | 3.71 | > 100 | 47 | > 100 | 3.03 | > 100 | 2.25 | > 100 | 3.19 | 6.71 | 5.45 | > 100 | 2.65 | 13.3 | 3.89 | > 100
8 | COc1ccc(/C=C/c2cnccn2)cc1OC |  | > 10 |  | > 10 |  | > 10 |  | > 10 |  | > 10 |  | > 10 |  | > 10 |  | > 10 |  | > 10 |  | > 10
9 | Oc1ccc(Oc2cnc3ccccc3n2)cc1 | > 100 | > 100 | > 100 | > 100 | > 100 | > 100 | > 100 | > 100 | > 100 | > 100 | > 100 | > 100 | > 100 | > 100 | 38.2 | > 100 | 55.7 | > 100 | > 100 | > 100
10 | CC(Cl)CN1c2ccccc2Sc2ccc(Cl)cc21 (stereo not given) |  | > 10 |  | > 10 |  | > 10 |  | > 10 |  | > 10 |  | > 10 |  | > 10 |  | > 10 |  | > 10 |  | > 10
